This test has as its target T1, human intracellular domain of KDR (VEGF Receptor-2) (Homo sapiens, UniProt P35968).
T1 construct: A fusion protein containing the intracellular domain (amino acids 793 to 1357) of the KDR and N-terminally tagged to GST; made in house; host or cells: Sf9 insect cells (baculovirus, pDEST20) for GST-KDR-cyt; E. coli BL21 (pGEX-4T-1) for GST-PLCγ
The test is described as follows: In vitro KDR kinase assay. Format: biochemical. The conditions noted are these: IC50 as molar concentration; GST-KDR-cyt, substrate phospholipase Cγ, ATP 100 μM, 30 min room temperature, time-resolved fluorometry. The method, boiled down:
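Sf9-expressed, constitutively active human KDR intracellular domain, diluted 3000–3500 fold, incubated 30 min at room temperature with 100 μM ATP on phospholipase Cγ-coated wells in TBS pH 7.4 with Mg acetate, compounds up to 10 μM, 0.1% DMSO max. Phosphotyrosine detected by Eu-PY-20 time-resolved fluorescence; IC50 by linear interpolation around 50% inhibition.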

T1 sequence (P35968 794-1356 limits assumed): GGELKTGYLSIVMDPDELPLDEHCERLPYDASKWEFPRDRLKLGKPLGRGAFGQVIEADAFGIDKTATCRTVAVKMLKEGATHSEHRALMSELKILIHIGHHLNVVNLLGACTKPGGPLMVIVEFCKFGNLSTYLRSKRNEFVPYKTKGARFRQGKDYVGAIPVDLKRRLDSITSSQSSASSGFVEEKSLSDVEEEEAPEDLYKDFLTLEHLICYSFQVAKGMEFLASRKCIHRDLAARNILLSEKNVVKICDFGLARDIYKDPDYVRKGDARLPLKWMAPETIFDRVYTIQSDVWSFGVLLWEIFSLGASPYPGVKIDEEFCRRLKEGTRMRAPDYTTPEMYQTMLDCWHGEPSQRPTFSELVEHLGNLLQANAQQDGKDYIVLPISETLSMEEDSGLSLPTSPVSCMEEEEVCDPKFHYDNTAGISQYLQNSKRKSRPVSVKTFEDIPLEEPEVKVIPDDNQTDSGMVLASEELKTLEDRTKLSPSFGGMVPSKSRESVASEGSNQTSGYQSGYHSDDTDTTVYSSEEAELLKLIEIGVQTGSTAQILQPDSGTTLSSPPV

For the molecule `CNC(=O)Nc1cc(CNc2ccccc2C(=O)NOCC2CCCC2)ccn1` [Compound 212, N-Cyclopentylmethoxy-2-{[2-(3-methyl-ureido)-pyridin-4-ylmethyl]-amino}-benzamide], the concentration for half-maximal inhibition (IC50) (usually the concentration at which inhibition is half-maximal) is 10 nM.
Then `N#Cc1ccc(CONC(=O)c2cccnc2NCc2ccncc2)c(Cl)c1` [Compound 157, N-(2-Chloro-4-cyano-benzyloxy)-2-[(pyridin-4-ylmethyl)-amino]-nicotinamide], with 50.1 nM.
To `O=C(NOC1CCCCC1)c1ccccc1NCc1ccncc1` [Compound 124, N-Cyclohexyloxy-2-[(pyridin-4-ylmethyl)-amino]-benzamide] belongs 63.1 nM.
`Cc1nc(CONC(=O)c2ccc(F)cc2NCc2ccncc2)cs1` [Compound 143, 4-Fluoro-N-(2-methyl-thiazol-4-ylmethoxy)-2-[(pyridin-4-ylmethyl)amino]-benzamide] had an IC50 of 100 nM.
Molecule `O=C(NCCO)Nc1cc(CNc2ccccc2C(=O)NOCC2CCCC2)ccn1` [compound 221] had an IC50 of 7.94 nM.
For the molecule `CNC(=O)Nc1cc(CNc2ccccc2C(=O)NOCc2ccc(C#N)cc2)ccn1` [Compound 210, N-(4-Cyano-benzyloxy)-2-{[2-(3-methyl-ureido)-pyridin-4-ylmethyl]-amino}-benzamide], 7.94 nM corresponded to half-maximal inhibition (IC50).
For `O=C(NOCc1cccc(Cl)c1F)c1ccccc1NCc1ccncc1` [Compound 25, N-(3-Chloro-2-fluoro-benzyloxy)-2-[(pyridin-4-ylmethyl)-amino]-benzamide], the IC50 was 50.1 nM.
Then `O=C(NOCc1c(F)cccc1Cl)c1ccccc1NCc1ccncc1` [Compound 23, N-(2-Chloro-6-fluoro-benzyloxy)-2-[(pyridin-4-ylmethyl)-amino]-benzamide], with 25.1 nM; and `N#Cc1ccc(CONC(=O)c2ccccc2NCc2ccnc(N)c2)cc1` [Compound 206, 2-[(2-Amino-pyridin-4-ylmethyl)-amino]-N-(4-cyano-benzyloxy)-benzamide], with 39.8 nM.
Then `N#Cc1ccc(CONC(=O)c2ccccc2NCc2ccnc3ccccc23)cc1` [compound 231], with 39.8 nM; and `Cc1ccc(CONC(=O)c2ccccc2NCc2ccncc2)c(F)c1F` [Compound 40, N-(2,3-Difluoro-4-methyl-benzyloxy)-2-[(pyridin-4-ylmethyl)-amino]-benzamide], with 10 nM; and `COc1ccccc1CONC(=O)c1ccccc1NCc1ccncc1` [Compound 64, N-(2-Methoxy-benzyloxy)-2-[(pyridin-4-ylmethyl)-amino]-benzamide], with 50.1 nM.
To `COc1cc(CONC(=O)c2ccccc2NCc2ccncc2)cc(OC)c1OC` [Compound 9, 2-[(pyridin-4-ylmethyl)-amino]-N-(3,4,5-trimethoxy-benzyloxy)-benzamide] belongs 100 nM; to `O=C(NOCC1CCCC1)c1ccccc1NCc1ccnc(NC(=O)C2CC2)c1` [compound 227], 5.01 nM.
`O=C(NOC[C@H]1CC[C@H](CO)CC1)c1ccccc1NCc1ccncc1` [Compound 130, N-(trans-4-Hydroxymethyl-cyclohexylmethoxy)-2-[(pyridin-4-ylmethyl)-amino]-benzamide] had an IC50 of 50.1 nM.
Then `O=C(NOCc1ccc(Cl)cc1)c1ccccc1NCc1ccncc1` [Compound 10, N-(4-Chloro-benzyloxy)-2-[(pyridin-4-ylmethyl)-amino]-benzamide], with 50.1 nM.
For the molecule `O=C(NOCCCC1CCCC1)c1ccccc1NCc1ccncc1` [Compound 127, N-(3-Cyclopentyl-propoxy)-2-[(pyridin-4-ylmethyl)-amino]-benzamide], the concentration for half-maximal inhibition (IC50) was 15.8 nM.
As for `O=C(NOCC1CCCC1)c1cccnc1NCc1ccncc1` [Compound 164, N-Cyclopentylmethoxy-2-[(pyridin-4-ylmethyl)-amino]-nicotinamide], the 50% inhibitory concentration (IC50) is 7.94 nM.
With `Nc1cc(CNc2ccccc2C(=O)NOCC2CCCC2)ccn1` [compound 229], half-maximal inhibition (IC50) required 7.94 nM.
Molecule `CC(=O)OCC(=O)Nc1cc(CNc2ccccc2C(=O)NOCc2ccc(C#N)cc2)ccn1` [compound 222] gave an IC50 of 6.31 nM.
The molecule `O=C(NOCc1ccc(F)cc1)c1ccccc1NCc1ccnc(N2CCOCC2)c1` [Compound 207, N-(4-Fluoro-benzyloxy)-2-[(2-morpholin-4-yl-pyridin-4-ylmethyl)-amino]-benzamide] gave an IC50 of 79.4 nM.
The molecule `CN(C)CCNC(=O)c1cccc(CONC(=O)c2ccccc2NCc2ccncc2)c1` [Compound 96, N-[3-(2-dimethylaminoethylcarbamoyl)-benzyloxy]-2-[(pyridin-4-ylmethyl)-amino]-benzamide] showed an IC50 of 79.4 nM.
For `Cc1cc(F)cc(C)c1CONC(=O)c1ccccc1NCc1ccncc1` [Compound 38, N-(4-Fluoro-2,6-dimethyl-benzyloxy)-2-[(pyridin-4-ylmethyl)-amino]-benzamide], the IC50 was 10 nM.
In turn, `O=C(NOCc1ccccc1)c1ccccc1NCc1ccncc1` [Compound 1, N-Benzyloxy-2-[(pyridin-4-ylmethyl)-amino]-benzamide] had a 50% inhibitory concentration (IC50) of 79.4 nM.
Regarding `O=C(NOCC1CCC1)c1ccccc1NCc1ccncc1` [Compound 119, N-Cyclobutylmethoxy-2-[(pyridin-4-ylmethyl)-amino]-benzamide], inhibition was half-maximal at 15.8 nM (IC50).
On to `CC(ONC(=O)c1ccccc1NCc1ccncc1)C1CCCC1` (stereo not drawn) [Compound 123, N-(1-Cyclopentyl-ethoxy)-2-[(pyridin-4-ylmethyl)-amino]-benzamide], for which the IC50 was 31.6 nM.
To `COc1cccc(CONC(=O)c2ccccc2NCc2ccncc2)c1` [Compound 8, N-(3-Methoxy-benzyloxy)-2-[(pyridin-4-ylmethyl)-amino]-benzamide] belongs 31.6 nM; to `COc1cc(C#N)ccc1CONC(=O)c1ccccc1NCc1ccncc1` [Compound 79, N-(4-Cyano-2-methoxy-benzyloxy)-2-[(pyridin-4-ylmethyl)-amino]-benzamide], 39.8 nM.
To `O=C(NOCc1ccc(F)cc1Cl)c1ccccc1NCc1ccncc1` [Compound 24, N-(2-Chloro-4-fluoro-benzyloxy)-2-[(pyridin-4-ylmethyl)-amino]-benzamide] belongs 20 nM.
To `O=C(NOCc1c(F)cccc1C(F)(F)F)c1ccccc1NCc1ccncc1` [Compound 60, N-(2-Fluoro-6-trifluoromethyl-benzyloxy)-2-[(pyridin-4-ylmethyl)-amino]-benzamide] belongs 20 nM; to `CCCc1cc(CONC(=O)c2ccccc2NCc2ccncc2)on1` [Compound 110, N-(3-Propyl-isoxazol-5-ylmethoxy)-2-[(pyridin-4-ylmethyl)-amino]-benzamide], 79.4 nM; to `N#Cc1ccc(CONC(=O)c2ccccc2NCc2ccnc(NC(=O)NCC(=O)O)c2)cc1` [compound 216], 10 nM.
`N#Cc1ccc(CONC(=O)c2ccccc2NCc2ccncc2)c(F)c1` [Compound 76, N-(4-Cyano-2-fluoro-benzyloxy)-2-[(pyridin-4-ylmethyl)-amino]-benzamide] gave a half-maximal inhibitory concentration (IC50) of 25.1 nM.
Molecule `O=C(NOCc1ccccc1[N+](=O)[O-])c1ccccc1NCc1ccncc1` [Compound 3, N-(2-Nitro-benzyloxy)-2-[(pyridin-4-ylmethyl)-amino]-benzamide] gave an IC50 of 100 nM.
Then `COc1ccc(CONC(=O)c2ccccc2NCc2ccncc2)cc1C(F)(F)F` [Compound 63, N-(4-Methoxy-3-trifluoromethyl-benzyloxy)-2-[(pyridin-4-ylmethyl)-amino]-benzamide], with 63.1 nM; and `O=C(NOCc1ccccc1SC(F)(F)F)c1ccccc1NCc1ccncc1` [Compound 70, 2-[(Pyridin-4-ylmethyl)-amino]-N-(2-trifluoromethylsulfanyl-benzyloxy)-benzamide], with 31.6 nM.
`CC(C)(C)CONC(=O)c1ccccc1NCc1ccncc1` [Compound 116, N-(2,2-Dimethyl-propoxy)-2-[(pyridin-4-ylmethyl)-amino]-benzamide] had a 50% inhibitory concentration (IC50) of 39.8 nM.
`O=C(NOCc1cccc(Cl)c1Cl)c1ccccc1NCc1ccncc1` [Compound 18, N-(2,3-Dichloro-benzyloxy)-2-[(pyridin-4-ylmethyl)-amino]-benzamide] gave an IC50 of 20 nM.
To `N#CCc1ccccc1CONC(=O)c1ccccc1NCc1ccncc1` [Compound 56, N-(2-Cyanomethyl-benzyloxy)-2-[(pyridin-4-ylmethyl)-amino]-benzamide] belongs 50.1 nM.

Values taken from patent publication US8034811B2, “Hydroxamic acid esters and pharmaceutical use thereof” (Leo Pharma A/S, priority 2003, dated 2011).
